For orientation: IC50 means the concentration at which inhibition is half-maximal. By inhibition is commonly meant the percentage by which the read-out fell short of the control.

The values that follow come from patent US8809338B2, “1,2,3-triazole-based peptidomimetic integrin inhibitors for the diagnosis and therapy of tumors” (Universita' Degli Studi di Firenze, priority 2010, dated 2014).

One assay concerns the target T1, αvβ3 integrin (Homo sapiens, UniProt P05106+P06756).
T1 construct: purified from human placenta; from tissue; host or cells: human placenta
As to the kind of experiment: Solid-phase receptor binding assay, [125I]-Echistatin competition, αvβ3. The following applies: for IC50: αvβ3 purified from human placenta, competition with [125I]-Echistatin. The procedure: Solid-phase receptor binding assay. [^125I]-Echistatin, labelled according to the lactoperoxidase method and with a specific activity of 2000 Ci/mmol, and αvβ3 and αvβ5 integrins, purified from human placenta, are used for the in vitro assays. Purified αvβ3 and αvβ5 receptors are respectively diluted to 500 ng/mL and 1000 ng/mL in 20 mM Tris (pH 7.4), 150 mM NaCl, 2 mM CaCl2, 1 mM MgCl2, 1 mM MnCl2. An amount of the diluted receptor solutions (100 μL/well) is added to a 96-well microtiter plate (Optiplate-96 HB, PerkinElmer Life Sciences, Boston, Mass.) and incubated at 4° C. for 16 h. Then, the plate is washed once with an incubation buffer [20 mM Tris (pH 7.4), 150 mM NaCl, 2 mM CaCl2, 1 mM MgCl2, 1 mM MnCl2, 1% BSA] and incubated for additional 2 h at room temperature. The plate is treated twice with the same buffer, and competitive binding experiments are carried out with a fixed concentration of [^125I]-Echistatin (0.05 nM and 0.1 nM for αvβ3 and αvβ5 respectively) and concentrations of the test compounds ranging from 0.01 nM to 100 μM. All the assays are carried out in triplicate at a final volume of 0.2 mL, each containing the following species: 0.05 mL of [^125I]-Echistatina, 0.04 mL of the test compounds, and 0.11 mL of the incubation buffer. Non-specific binding is defined as the [^125I]-Echistatin bound in the presence of excess (1 μM) of non-labelled echistatin. After an incubation period of 3 h at room temperature, the plate is washed three times with the incubation buffer, then the radioactivity is measured in a plate counter Top-Count NXT (Perkin Elmer Life Sciences, Boston, Mass.) using 200 μL/well of scintillating liquid MicroScint-40 (PerkinElmer Life Sciences, Boston, Mass.). Data analysis. IC50 values are determined by fitting the binding inhibition data with a non-linear regression, using the GraphPad Prism 4.0 software package (GraphPad Prism, San Diego, Calif.). […] The inhibition curves better fitted according to a two-sites model (p<0.05) rather than a single-site model are considered to be significant.

Another assay addresses T2, αvβ5 integrin (Homo sapiens, UniProt P06756+P18084).
T2 construct: purified from human placenta; from tissue; host or cells: human placenta
As to the kind of experiment: Solid-phase receptor binding assay, [125I]-Echistatin competition, αvβ5. The conditions noted are these: αvβ5 purified from human placenta; competition with [125I]-Echistatin. The procedure:
Solid-phase receptor binding assay. [^125I]-Echistatin, labelled according to the lactoperoxidase method and with a specific activity of 2000 Ci/mmol, and αvβ3 and αvβ5 integrins, purified from human placenta, are used for the in vitro assays. Purified αvβ3 and αvβ5 receptors are respectively diluted to 500 ng/mL and 1000 ng/mL in 20 mM Tris (pH 7.4), 150 mM NaCl, 2 mM CaCl2, 1 mM MgCl2, 1 mM MnCl2. An amount of the diluted receptor solutions (100 μL/well) is added to a 96-well microtiter plate (Optiplate-96 HB, PerkinElmer Life Sciences, Boston, Mass.) and incubated at 4° C. for 16 h. Then, the plate is washed once with an incubation buffer [20 mM Tris (pH 7.4), 150 mM NaCl, 2 mM CaCl2, 1 mM MgCl2, 1 mM MnCl2, 1% BSA] and incubated for additional 2 h at room temperature. […] After an incubation period of 3 h at room temperature, the plate is washed three times with the incubation buffer, then the radioactivity is measured in a plate counter Top-Count NXT (Perkin Elmer Life Sciences, Boston, Mass.) using 200 μL/well of scintillating liquid MicroScint-40 (PerkinElmer Life Sciences, Boston, Mass.). […] IC50 values are determined by fitting the binding inhibition data with a non-linear regression, using the GraphPad Prism 4.0 software package (GraphPad Prism, San Diego, Calif.). […]

In another assay the test system is A375M melanoma cell line. As to the kind of experiment: Melanoma cell line assay, inhibition of cell adhesion to RGD-containing substrates. The conditions noted are these: compounds at 10, 1.0 and 0.1 μM, FIG. 3. In kind it is cell-based, human. The procedure: A series of experiments carried out using the flux cytometry technique and specific monoclonal antibodies, allowed for the setup of particular human melanoma cells characterized by an over-expression of integrin receptors. Such cells have been used to test the capability of selected compounds of formula (I) at 10, 1.0 and 0.1 μM concentrations, of inhibiting the binding between these cells and suitable substrates containing the RGD sequence, such as vitronectin, fibronectin, and osteopontin (FIG. 3).
Melanoma cell line assay. The selected cell line for this study is the A375M, which are in vivo selected melanoma cells starting from A375P cells isolated from a amelanotic human melanoma. The expression of the RGD-dependent integrinic pattern, comprising αvβ3, αvβ5, α5β1 integrins, of A375M cells is determined by the flux cytometry technique (FACScanto, Becton & Dickinson) and by RT-PCR. With aim to evaluate the ability of compounds of formula (I) of binding to integrins exposed to the melanoma cells surface, the inhibition of adhesion of such cells to vitronectin, fibronectin and osteopontin are measured. A spectrophotometric evaluation of the cellular content of the culture plates used in the adhesion tests allows for the precision and the correlation of the results obtained in different experiments.

Entries after “also recorded” stand apart in the source; their conditions may differ.

In the case of `N=C(N)NCCCc1cn(CC(=O)N[C@@H](CC(=O)O)c2ccccc2)nn1` [Compound 38], the 50% inhibitory concentration (IC50) at αvβ3 integrin worked out at 0.0164 µM; on αvβ5 integrin, 1.02 µM.
Turning to `Cc1ccc(S(=O)(=O)N(CCn2cc(CCNC(=N)N)nn2)CC(=O)O)cc1` [Compound 52], the inhibition at 1 µM on αvβ3 integrin (1 μM concentration) was 54%. Also, on αvβ3 integrin (10 μM concentration), the inhibition at 10 µM amounted to 77%.
On to `N=C(N)NCCCc1cn(CC(=O)N[C@@H](CC(=O)O)c2ccc(O)cc2)nn1` [Compound 54], for which the IC50 at αvβ3 integrin stood at 2.1 µM.
The same measure, in the same setting: the result for `N=C(N)NCCCc1cn(CC(=O)NC(CC(=O)O)c2ccc(F)cc2)nn1` (centres unmarked) [Compound 49] reads 0.101 µM; that for `N=C(NCCCc1cn(CC(=O)N[C@@H](CC(=O)O)c2ccccc2)nn1)NCCc1ccc(O)cc1` [Compound 59], 0.308 µM; that for `O=C(O)C[C@H](NC(=O)Cn1cc(CCCNCc2nc3ccccc3[nH]2)nn1)c1ccc(F)cc1` [Compound 57], 0.2 µM.
Consider `N=C(N)NCCCc1cn(CC(=O)NC(CC(=O)O)c2ccc(F)cc2)nn1` (centres unmarked) [Compound 48], for which the IC50 at αvβ3 integrin amounted to 0.215 µM. In the assay on A375M melanoma cell line, the “inhibition of adhesion of melanoma cells to fibronectin” value is “minor effect”, the “inhibition of binding of melanoma cells to osteopontin” value is given as “significantly inhibits; also recorded: minor effect” and the “inhibition of binding of melanoma cells to vitronectin” value is on record as “significantly inhibits”. Also, at αvβ5 integrin, the IC50 was 9.9 µM.
With `N=C(N)NCCCc1cn(CC(=O)NCCC(=O)O)nn1` [Compound 55], at αvβ3 integrin, the IC50 turned out to be 0.013 µM.
